A value given as a limit tells only on which side of the number the result lay.

The target of data set [1] is T1, mouse TGR5 receptor (Mus musculus, UniProt Q80SS6).
T1 construct: host or cells: HEK293-EBNA (293 c18, ATCC CRL10852)
T1 sequence (Q80SS6 1-329): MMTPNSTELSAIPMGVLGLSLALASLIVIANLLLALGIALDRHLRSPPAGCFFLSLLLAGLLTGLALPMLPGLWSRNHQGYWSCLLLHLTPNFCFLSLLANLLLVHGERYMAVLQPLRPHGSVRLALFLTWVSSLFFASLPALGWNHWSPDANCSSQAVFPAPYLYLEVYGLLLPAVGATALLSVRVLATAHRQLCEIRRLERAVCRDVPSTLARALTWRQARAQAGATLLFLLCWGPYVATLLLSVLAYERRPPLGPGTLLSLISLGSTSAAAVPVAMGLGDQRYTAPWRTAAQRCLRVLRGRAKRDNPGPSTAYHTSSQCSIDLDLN
The data set is described as follows: Mouse TGR5 HTRF cAMP production assay (HEK293-EBNA cells, Cisbio cAMP HiRange kit). The class given is cell-based. Particulars: HEK293-EBNA cells overexpressing mouse TGR5, HTRF cAMP assay. In a few lines:
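cAMP accumulation was read by competitive HTRF after 1 h room-temperature compound treatment, with a further 1 h conjugate incubation. Cells were mouse TGR5-overexpressing HEK293-EBNA in serum-free DMEM plus 500 μM IBMX. Compounds ran as 12-point half-log series in duplicate, and EC50 values were reported.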
(TR-FRET usually uses a lanthanide donor and a delayed reading to cut background.)

Data set [2] is described as follows: Pharmacokinetic profile in mice after oral gavage. The data set is classed as in vivo, mouse. Particulars: mouse; fasted male Hilltop mice, 10 mg/kg oral gavage, plasma; read-out: Cmax. In a few lines:
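Plasma exposure (Cmax, AUC) by non-compartmental analysis of LC-MS/MS data, orbital blood taken at 0, 0.25, 0.5, 1, 2 and 4 h, each value averaging three mice. Dosing: 10 mg/kg oral gavage to overnight-fasted male Hilltop mice (8 weeks), vehicle PEG400/CMC/Tween-80.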

In data set [1], `N#Cc1ccc(CCNC(=O)[C@@H]2CCN2c2cc(N3CCC(CCCC(=O)NCCOCCNC(=N)N)CC3)nc(C(F)(F)F)n2)cc1` [Compound 284, (S)-N-(4-cyanophenethyl)-1-(6-(4-(4-((2-(2-guanidinoethoxy)-ethyl)amino)-4-oxobutyl)piperidin-1-yl)-2-(trifluoromethyl)pyrimidin-4-yl)azetidine-2-carboxamide] registered an EC50 of less than 0.1 µM. Also, the highest concentration (Cmax) in data set [2] was determined as 13 ng/mL.

In data set [1], `N#Cc1ccc(CCNC(=O)[C@@H]2CCN2c2cc(N3CCC(CCNC(=O)NCS(=O)(=O)O)CC3)nc(C(F)(F)F)n2)cc1` [Compound 270, (S)-(3-(2-(1-(6-(2-((4-cyanophenethyl)carbamoyl)azetidin-1-yl)-2-(trifluoromethyl)pyrimidin-4-yl)piperidin-4-yl)ethyl)ureido)-methanesulfonic acid] had an EC50 of less than 0.1 µM. Moreover, the maximum concentration (Cmax) in data set [2] is 5.4 ng/mL.

The compound `O=C(CCCC1CCN(c2cc(N3CCC[C@H]3C(=O)NCCc3ccc(C(F)(F)F)cc3)nc(C(F)(F)F)n2)CC1)NCCCS(=O)(=O)O` [Compound 60, (S)-3-(4-(1-(2-(trifluoromethyl)-6-(2-((4-(trifluoromethyl)phenethyl)carbamoyl)pyrrolidin-1-yl)pyrimidin-4-yl)piperidin-4-yl)butanamido)propane-1-sulfonic acid] had an EC50 in data set [1] of less than 0.1 µM. Moreover, in data set [2], the Cmax amounted to 4.3 ng/mL.

In data set [1], `N#Cc1ccc(CCNC(=O)[C@@H]2CCCN2c2cc(N3CCC(CCCC(=O)NCCC(=O)O)CC3)nc(C(F)(F)F)n2)cc1` [Compound 104, (S)-3-(4-(1-(6-(2-((4-cyanophenethyl)carbamoyl)pyrrolidin-1-yl)-2-(trifluoromethyl)pyrimidin-4-yl)-piperidin-4-yl)butanamido)-propanoic acid] returned a concentration giving a half-maximal response (EC50) of less than 0.1 µM. Also, the Cmax in data set [2] stood at 8.9 ng/mL.

As for `N#Cc1ccc(CCNC(=O)[C@@H]2CCN2c2cc(N3CCC(CCNc4c(NCCS(=O)(=O)O)c(=O)c4=O)CC3)nc(C(F)(F)F)n2)cc1` [Compound 297, (S)-2-((2-((2-(1-(6-(2-((4-cyanophenethyl)carbamoyl)azetidin-1-yl)-2-(trifluoromethyl)pyrimidin-4-yl)piperidin-4-yl)ethyl)amino)-3,4-dioxocyclobut-1-en-1-yl)amino)ethanesulfonic acid], the EC50 in data set [1] was less than 0.1 µM. Also, in data set [2], the Cmax amounted to 11 ng/mL.

For `O=C(O)CC[C@@H](NC(=O)CCCC1CCN(c2cc(N3CC[C@H]3C(=O)NCCc3ccc(C(F)(F)F)cc3)nc(C(F)(F)F)n2)CC1)C(=O)O` [Compound 294, (R)-2-(4-(1-(2-(trifluoromethyl)-6-((S)-2-((4-(trifluoromethyl)-phenethyl)carbamoyl)azetidin-1-yl)pyrimidin-4-yl)piperidin-4-yl)butanamido)pentanedioic acid], the EC50 in data set [1] is less than 0.1 µM. Further, the Cmax in data set [2] turned out to be 1.7 ng/mL.

With `COc1cc(C(F)(F)F)ccc1CCNC(=O)[C@@H]1CCN1c1cc(N2CCC(CCC(=O)O)CC2)nc(C(F)(F)F)n1` [Compound 239, (S)-3-(1-(6-(2-((2-methoxy-4-(trifluoromethyl)phenethyl)carbamoyl)azetidin-1-yl)-2-(trifluoromethyl)pyrimidin-4-yl)piperidin-4-yl)propanoic acid], in data set [1], the EC50 was less than 0.1 µM. The peak concentration (Cmax) in data set [2] came out at 53 ng/mL.

`COc1cc(C(F)(F)F)ccc1CCNC(=O)[C@@H]1CCCN1c1cc(N2CCC(CCCC(=O)NCCS(=O)(=O)O)CC2)nc(C(F)(F)F)n1` [Compound 57, (S)-2-(4-(1-(6-(2-((2-methoxy-4-(trifluoromethyl)phenethyl)carbamoyl)-pyrrolidin-1-yl)-2-(trifluoromethyl)-pyrimidin-4-yl)piperidin-4-yl)butanamido)ethanesulfonic acid]: in data set [1], the 50% effective concentration (EC50) is less than 0.1 µM. The Cmax in data set [2] stood at 13 ng/mL.

`N#Cc1ccc(CCNC(=O)[C@@H]2CCCN2c2cc(N3CCC(CCCC(=O)NCCNC(=N)N)CC3)nc(C(F)(F)F)n2)cc1` [Compound 128, (S)-N-(4-cyanophenethyl)-1-(6-(4-(4-((2-guanidinoethyl)amino)-4-oxobutyl)piperidin-1-yl)-2-(trifluoromethyl)pyrimidin-4-yl)pyrrolidine-2-carboxamide]: in data set [1], the EC50 is less than 0.1 µM. In addition, the highest concentration (Cmax) in data set [2] was 670 ng/mL.

Compound `O=C(O)CCCC1CCN(c2cc(N3CCC[C@H]3C(=O)NCCc3ccc(C(F)(F)F)cc3)nc(C(F)(F)F)n2)CC1` [Compound 9] gave an EC50 in data set [1] of less than 0.1 µM. Besides, the peak concentration (Cmax) in data set [2] is 48 ng/mL.

For `N#Cc1ccc(CCNC(=O)[C@@H]2CCCN2c2cc(N3CCC(CCNC(=O)[C@@H](N)CS(=O)(=O)O)CC3)nc(C(F)(F)F)n2)cc1` [Compound 123, (R)-2-amino-3-((2-(1-(6-((S)-2-((4-cyanophenethyl)carbamoyl)pyrrolidin-1-yl)-2-(trifluoromethyl)pyrimidin-4-yl)piperidin-4-yl)ethyl)amino)-3-oxopropane-1-sulfonic acid], the EC50 in data set [1] is less than 0.1 µM. Also, in data set [2], the Cmax is 1.4 ng/mL.

On to `O=C(O)CNS(=O)(=O)CCNC(=O)CCCC1CCN(c2cc(N3CCC[C@H]3C(=O)NCCc3ccc(C(F)(F)F)cc3)nc(C(F)(F)F)n2)CC1` [Compound 114, (S)-2-(2-(4-(1-(2-(trifluoromethyl)-6-(2-((4-(trifluoromethyl)phenethyl)-carbamoyl)-pyrrolidin-1-yl)pyrimidin-4-yl)piperidin-4-yl)butanamido)ethyl-sulfonamido)acetic acid], for which the EC50 in data set [1] is less than 0.1 µM. In addition, the Cmax in data set [2] was determined as 4.8 ng/mL.

On to `N#Cc1ccc(CCNC(=O)[C@@H]2CCN2c2cc(N3CCC(CCCC(=O)NCS(=O)(=O)O)CC3)nc(C(F)(F)F)n2)cc1` [Compound 250, (S)-(4-(1-(6-(2-((4-cyanophenethyl)carbamoyl)azetidin-1-yl)-2-(trifluoromethyl)pyrimidin-4-yl)piperidin-4-yl)butanamido)methanesulfonic acid], for which, in data set [1], the EC50 was less than 0.1 µM. Also, the Cmax in data set [2] is 7.6 ng/mL.

Turning to `N#Cc1ccc(CCNC(=O)[C@@H]2CCCN2c2cc(N3CCC(CCCC(=O)O)CC3)nc(C(F)(F)F)n2)cc1` [Compound 29], in data set [1], the EC50 is less than 0.1 µM. In data set [2], the Cmax came out at 55 ng/mL.

In the case of `N#Cc1ccc(CCNC(=O)[C@@H]2CCN2c2cc(N3CCC(CCCC(=O)NC[C@@H](O)CO)CC3)nc(C(F)(F)F)n2)cc1` [Compound 261, (S)-N-(4-cyanophenethyl)-1-(6-(4-(4-(((R)-2,3-dihydroxypropyl)amino)-4-oxobutyl)piperidin-1-yl)-2-(trifluoromethyl)pyrimidin-4-yl)azetidine-2-carboxamide], the 50% effective concentration (EC50) in data set [1] is less than 0.1 µM. The Cmax in data set [2] was 48 ng/mL.

`N#Cc1ccc(CCNC(=O)[C@@H]2CCCN2c2cc(N3CCC(CCCC(=O)NCS(=O)(=O)O)CC3)cc(C(F)(F)F)n2)cc1` [Compound 198, (S)-(4-(1-(2-(2-((4-cyanophenethyl)carbamoyl)pyrrolidin-1-yl)-6-(trifluoromethyl)pyridin-4-yl)piperidin-4-yl)butanamido)methanesulfonic acid] registered an EC50 in data set [1] of less than 0.1 µM. For the same compound, in data set [2], the Cmax came to 6.8 ng/mL.

For `N[C@@H](CS(=O)(=O)O)C(=O)NCCC1CCN(c2cc(N3CC[C@H]3C(=O)NCCc3ccc(C(F)(F)F)cc3)nc(C(F)(F)F)n2)CC1` [Compound 278, (R)-2-amino-3-oxo-3-((2-(1-(2-(trifluoromethyl)-6-((S)-2-((4-(trifluoromethyl)-phenethyl)carbamoyl)azetidin-1-yl)pyrimidin-4-yl)piperidin-4-yl)ethyl)amino)-propane-1-sulfonic acid], the EC50 in data set [1] is less than 0.1 µM. Moreover, the maximum concentration (Cmax) in data set [2] is 3.7 ng/mL.

As to `N#Cc1ccc(CCNC(=O)[C@@H]2CCCN(c3cc(N4CCC(CCNC(=O)NCCC(=O)O)CC4)nc(C(F)(F)F)n3)C2)cc1` [Compound 347, (R)-3-(3-(2-(1-(6-(3-((4-cyanophenethyl)carbamoyl)piperidin-1-yl)-2-(trifluoromethyl)pyrimidin-4-yl)piperidin-4-yl)ethyl)ureido)propanoic acid], the EC50 in data set [1] is less than 0.1 µM. Besides, in data set [2], the Cmax is 30 ng/mL.

`N#Cc1ccc(CCNC(=O)[C@@H]2CCCN2c2cc(N3CCC(CCNc4c(NCP(=O)(O)O)c(=O)c4=O)CC3)nc(C(F)(F)F)n2)cc1` [Compound 369, (S)-(((2-((2-(1-(6-(2-((4-cyanophenethyl)carbamoyl)pyrrolidin-1-yl)-2-(trifluoromethyl)pyrimidin-4-yl)piperidin-4-yl)ethyl)amino)-3,4-dioxocyclobut-1-en-1-yl)amino)methyl)phosphonic acid] showed an EC50 in data set [1] of less than 0.1 µM. In data set [2], the Cmax was 1.7 ng/mL.

Regarding `N#Cc1ccc(CCNC(=O)[C@@H]2CCCN2c2cc(N3CCC(CCCC(=O)NCCCS(=O)(=O)O)CC3)nc(C(F)(F)F)n2)cc1` [Compound 63, (S)-3-(4-(1-(6-(2-((4-cyanophenethyl)carbamoyl)pyrrolidin-1-yl)-2-(trifluoromethyl)pyrimidin-4-yl)-piperidin-4-yl)butanamido)propane-1-sulfonic acid], in data set [1], the EC50 is less than 0.1 µM. In data set [2], the Cmax was found to be 1.3 ng/mL.

As a reminder, the EC50 is the concentration needed to bring the measured effect to its halfway point. Low values mean an effect from little substance, high ones a need for much substance. A word on the Cmax: it is the maximum level reached in the sampled fluid or tissue.

For the origin of these results see patent US10654834B2 (Venenum Biodesign, LLC, priority 2016, dated 2020).
